Source: the NIST ThermoML archive (doi:10.1021/acs.jced.5b00407)

Legend:
[1] = mn = molality of the nth substance listed, in mol/kg; details: 101.3 kPa, Liquid; for mass density: Vibrating tube method; for viscosity: Capillary tube (Ostwald / Ubbelohde) method
[2] = refractive index (Na D-line) (dimensionless); mn = molality of the nth substance listed, in mol/kg; details: 101.3 kPa, Liquid, Standard Abbe refractometry

O=C([O-])[C@H](O)[C@@H](O)[C@H](O[C@@H]1O[C@H](CO)[C@H](O)[C@H](O)[C@H]1O)[C@H](O)CO.[Na+] [sodium lactobionate] + O
Details	mass density, [1] [kg/m3]	refractive index, [2]	viscosity, [1] [mPa·s]
293.15 K, m1 = 0.0251	–	1.3331	–
293.15 K, m1 = 0.0502	–	1.3344	–
293.15 K, m1 = 0.0753	–	1.336	–
293.15 K, m1 = 0.1	–	1.3376	–
293.15 K, m1 = 0.126	–	1.3392	–
293.15 K, m1 = 0.151	–	1.3406	–
293.15 K, m1 = 0.176	–	1.3421	–
293.15 K, m1 = 0.201	–	1.3435	–
298.15 K, m1 = 0.0251	–	1.3326	–
298.15 K, m1 = 0.0502	–	1.3339	–
298.15 K, m1 = 0.0753	–	1.3354	–
298.15 K, m1 = 0.1	–	1.337	–
298.15 K, m1 = 0.126	–	1.3385	–
298.15 K, m1 = 0.151	–	1.34	–
298.15 K, m1 = 0.176	–	1.3415	–
298.15 K, m1 = 0.201	–	1.343	–
303.15 K, m1 = 0.0251	–	1.3321	–
303.15 K, m1 = 0.0502	–	1.3334	–
303.15 K, m1 = 0.0753	–	1.3348	–
303.15 K, m1 = 0.1	–	1.3364	–
303.15 K, m1 = 0.126	–	1.3378	–
303.15 K, m1 = 0.151	–	1.3393	–
303.15 K, m1 = 0.176	–	1.3409	–
303.15 K, m1 = 0.201	–	1.3425	–
308.15 K, m1 = 0.0251	–	1.3316	–
308.15 K, m1 = 0.0502	–	1.3328	–
308.15 K, m1 = 0.0753	–	1.3342	–
308.15 K, m1 = 0.1	–	1.3357	–
308.15 K, m1 = 0.126	–	1.3371	–
308.15 K, m1 = 0.151	–	1.3387	–
308.15 K, m1 = 0.176	–	1.3403	–
308.15 K, m1 = 0.201	–	1.342	–
313.15 K, m1 = 0.0251	–	1.331	–
313.15 K, m1 = 0.0502	–	1.3322	–
313.15 K, m1 = 0.0753	–	1.3335	–
313.15 K, m1 = 0.1	–	1.335	–
313.15 K, m1 = 0.126	–	1.3364	–
313.15 K, m1 = 0.151	–	1.338	–
313.15 K, m1 = 0.176	1027.2	1.3397	–
313.15 K, m1 = 0.201	1031.8	1.3415	–
318.15 K, m1 = 0.0251	–	1.3304	0.6029
318.15 K, m1 = 0.0502	1001.6	1.3316	0.6136
318.15 K, m1 = 0.0753	1006.5	1.3329	0.6313
318.15 K, m1 = 0.1	1011.5	1.3343	0.6556
318.15 K, m1 = 0.126	1015.9	1.3357	0.6711
318.15 K, m1 = 0.151	1020.5	1.3373	0.6951
318.15 K, m1 = 0.176	1025.3	1.3391	0.7157
318.15 K, m1 = 0.201	1030	1.3409	0.7469
323.15 K, m1 = 0.0251	–	1.3297	0.5523
323.15 K, m1 = 0.0502	999.8	1.3309	0.5625
323.15 K, m1 = 0.0753	1004.7	1.3322	0.5789
323.15 K, m1 = 0.1	1009.5	1.3336	0.6009
323.15 K, m1 = 0.126	1013.9	1.3349	0.6151
323.15 K, m1 = 0.151	1018.4	1.3365	0.6372
323.15 K, m1 = 0.176	1023.2	1.3384	0.6565
323.15 K, m1 = 0.201	1028	1.3404	0.6849
